± gives the expanded uncertainty stated by the source.
Legend:
[1] = xn = mol fraction of the nth substance listed; conditions: Maximal bubble pressure
[2] = refractive index (Na D-line) (dimensionless); xn = mol fraction of the nth substance listed; conditions: 101 kPa, Liquid

C[S+](C)[O-] [dimethyl sulfoxide] + O
Conditions | refractive index, [2] | surface tension liquid-gas, [1] [mN/m]
298.15 K, x1 = 0.0121 | 1.34 ± 0.0015 | 71 ± 0.5
298.15 K, x1 = 0.0202 | 1.344 ± 0.0015 | 69.7 ± 0.5
298.15 K, x1 = 0.1044 | – | 61.2 ± 0.4
298.15 K, x1 = 0.1467 | 1.396 ± 0.0025 | –
298.15 K, x1 = 0.1979 | – | 56.7 ± 0.4
298.15 K, x1 = 0.2455 | 1.4215 ± 0.0015 | –
298.15 K, x1 = 0.2507 | – | 55.4 ± 0.4
298.15 K, x1 = 0.2959 | 1.4305 ± 0.0015 | –
298.15 K, x1 = 0.2999 | – | 53.3 ± 0.4
298.15 K, x1 = 0.3187 | – | 53.1 ± 0.4
298.15 K, x1 = 0.3213 | 1.4345 ± 0.0015 | –
298.15 K, x1 = 0.3536 | – | 52.6 ± 0.4
298.15 K, x1 = 0.3713 | 1.4415 ± 0.0015 | –
298.15 K, x1 = 0.3802 | – | 52 ± 0.4
298.15 K, x1 = 0.3967 | 1.4445 ± 0.0015 | –
298.15 K, x1 = 0.4191 | – | 51 ± 0.4
298.15 K, x1 = 0.4301 | 1.4475 ± 0.0016 | –
298.15 K, x1 = 0.4523 | – | 50.3 ± 0.4
298.15 K, x1 = 0.501 | – | 48.3 ± 0.4
298.15 K, x1 = 0.59 | – | 46 ± 0.4
298.15 K, x1 = 0.5964 | 1.461 ± 0.0015 | –
298.15 K, x1 = 0.7027 | – | 44 ± 0.3
298.15 K, x1 = 0.7685 | 1.47 ± 0.0016 | –
298.15 K, x1 = 0.8088 | – | 42.6 ± 0.3
298.15 K, x1 = 0.8945 | – | 42 ± 0.3
303.15 K, x1 = 0.0121 | 1.339 ± 0.0015 | 70.1 ± 0.5
303.15 K, x1 = 0.0202 | 1.3435 ± 0.0015 | 68.7 ± 0.5
303.15 K, x1 = 0.1044 | – | 60.6 ± 0.4
303.15 K, x1 = 0.1467 | 1.4005 ± 0.0016 | –
303.15 K, x1 = 0.1979 | – | 55.8 ± 0.4
303.15 K, x1 = 0.2455 | 1.42 ± 0.0015 | –
303.15 K, x1 = 0.2507 | – | 54.5 ± 0.4
303.15 K, x1 = 0.2959 | 1.4295 ± 0.0015 | –
303.15 K, x1 = 0.2999 | – | 52.4 ± 0.4
303.15 K, x1 = 0.3187 | – | 52.3 ± 0.4
303.15 K, x1 = 0.3213 | 1.4335 ± 0.0015 | –
303.15 K, x1 = 0.3536 | – | 51.7 ± 0.4
303.15 K, x1 = 0.3713 | 1.4405 ± 0.0015 | –
303.15 K, x1 = 0.3802 | – | 51.2 ± 0.4
303.15 K, x1 = 0.3967 | 1.443 ± 0.0015 | –
303.15 K, x1 = 0.4191 | – | 50 ± 0.4
303.15 K, x1 = 0.4301 | 1.4455 ± 0.0015 | –
303.15 K, x1 = 0.4523 | – | 49.9 ± 0.4
303.15 K, x1 = 0.501 | – | 47.4 ± 0.4
303.15 K, x1 = 0.59 | – | 45.2 ± 0.4
303.15 K, x1 = 0.5964 | 1.459 ± 0.0015 | –
303.15 K, x1 = 0.7027 | – | 43.4 ± 0.3
303.15 K, x1 = 0.7685 | 1.468 ± 0.0016 | –
303.15 K, x1 = 0.8088 | – | 42.1 ± 0.3
303.15 K, x1 = 0.8945 | – | 41.4 ± 0.3
308.15 K, x1 = 0.0121 | 1.3395 ± 0.0015 | 69.2 ± 0.5
308.15 K, x1 = 0.0202 | 1.343 ± 0.0015 | 67.9 ± 0.5
308.15 K, x1 = 0.1044 | – | 59.8 ± 0.4
308.15 K, x1 = 0.1467 | 1.4 ± 0.0025 | –
308.15 K, x1 = 0.1979 | – | 54.8 ± 0.4
308.15 K, x1 = 0.2455 | 1.419 ± 0.0015 | –
308.15 K, x1 = 0.2507 | – | 53.2 ± 0.4
308.15 K, x1 = 0.2959 | 1.428 ± 0.0016 | –
308.15 K, x1 = 0.2999 | – | 51.5 ± 0.4
308.15 K, x1 = 0.3187 | – | 51.4 ± 0.4
308.15 K, x1 = 0.3213 | 1.432 ± 0.0015 | –
308.15 K, x1 = 0.3536 | – | 50.6 ± 0.4
308.15 K, x1 = 0.3713 | 1.4395 ± 0.0015 | –
308.15 K, x1 = 0.3802 | – | 50.3 ± 0.4
308.15 K, x1 = 0.3967 | 1.442 ± 0.0015 | –
308.15 K, x1 = 0.4191 | – | 49.2 ± 0.4
308.15 K, x1 = 0.4301 | 1.4445 ± 0.0015 | –
308.15 K, x1 = 0.4523 | – | 49.1 ± 0.4
308.15 K, x1 = 0.501 | – | 46.7 ± 0.4
308.15 K, x1 = 0.59 | – | 44.6 ± 0.4
308.15 K, x1 = 0.5964 | 1.458 ± 0.0016 | –
308.15 K, x1 = 0.7027 | – | 42.6 ± 0.3
308.15 K, x1 = 0.7685 | 1.466 ± 0.0016 | –
308.15 K, x1 = 0.8088 | – | 41.5 ± 0.3
308.15 K, x1 = 0.8945 | – | 40.9 ± 0.3
313.15 K, x1 = 0.0121 | – | 67.6 ± 0.5
313.15 K, x1 = 0.0202 | – | 66.9 ± 0.4
313.15 K, x1 = 0.1044 | – | 58.7 ± 0.4
313.15 K, x1 = 0.1979 | – | 53.9 ± 0.4
313.15 K, x1 = 0.2507 | – | 52.3 ± 0.4
313.15 K, x1 = 0.2999 | – | 50.6 ± 0.4
313.15 K, x1 = 0.3187 | – | 50.4 ± 0.4
313.15 K, x1 = 0.3536 | – | 50 ± 0.4
313.15 K, x1 = 0.3802 | – | 49.5 ± 0.4
313.15 K, x1 = 0.4191 | – | 48.4 ± 0.4
313.15 K, x1 = 0.4523 | – | 48.2 ± 0.4
313.15 K, x1 = 0.501 | – | 46 ± 0.4
313.15 K, x1 = 0.59 | – | 43.8 ± 0.3
313.15 K, x1 = 0.7027 | – | 42.1 ± 0.3
313.15 K, x1 = 0.8088 | – | 40.9 ± 0.3
313.15 K, x1 = 0.8945 | – | 40.3 ± 0.3
318.15 K, x1 = 0.0121 | – | 66.4 ± 0.4
318.15 K, x1 = 0.0202 | – | 65.8 ± 0.4
318.15 K, x1 = 0.1044 | – | 57.9 ± 0.4
318.15 K, x1 = 0.1979 | – | 53 ± 0.4
318.15 K, x1 = 0.2507 | – | 51.2 ± 0.4
318.15 K, x1 = 0.3218 | – | 50.7 ± 0.4
318.15 K, x1 = 0.3506 | – | 49.7 ± 0.4
318.15 K, x1 = 0.3549 | – | 49.4 ± 0.4
318.15 K, x1 = 0.3802 | – | 48.6 ± 0.4
318.15 K, x1 = 0.4191 | – | 47.5 ± 0.4
318.15 K, x1 = 0.4523 | – | 47.3 ± 0.4
318.15 K, x1 = 0.501 | – | 45.1 ± 0.4
318.15 K, x1 = 0.59 | – | 43.1 ± 0.3
318.15 K, x1 = 0.7027 | – | 41.4 ± 0.3
318.15 K, x1 = 0.8088 | – | 40.4 ± 0.3
318.15 K, x1 = 0.8945 | – | 39.8 ± 0.3
323.15 K, x1 = 0.0121 | – | 65.3 ± 0.4
323.15 K, x1 = 0.0202 | – | 64.8 ± 0.4
323.15 K, x1 = 0.1044 | – | 57 ± 0.4
323.15 K, x1 = 0.1979 | – | 52.2 ± 0.4
323.15 K, x1 = 0.2507 | – | 50.3 ± 0.4
323.15 K, x1 = 0.3218 | – | 49.9 ± 0.4
323.15 K, x1 = 0.3506 | – | 48.7 ± 0.4
323.15 K, x1 = 0.3549 | – | 48.4 ± 0.4
323.15 K, x1 = 0.3802 | – | 47.7 ± 0.4
323.15 K, x1 = 0.4191 | – | 46.7 ± 0.4
323.15 K, x1 = 0.4523 | – | 46.3 ± 0.4
323.15 K, x1 = 0.501 | – | 44.4 ± 0.4
323.15 K, x1 = 0.59 | – | 42.3 ± 0.3
323.15 K, x1 = 0.7027 | – | 40.8 ± 0.3
323.15 K, x1 = 0.8088 | – | 39.8 ± 0.3
323.15 K, x1 = 0.8945 | – | 39.2 ± 0.3
328.15 K, x1 = 0.0121 | – | 65.1 ± 0.4
328.15 K, x1 = 0.0202 | – | 63.8 ± 0.4
328.15 K, x1 = 0.1044 | – | 55.1 ± 0.4
328.15 K, x1 = 0.1979 | – | 51.1 ± 0.4
328.15 K, x1 = 0.2507 | – | 49.4 ± 0.4
328.15 K, x1 = 0.3218 | – | 49 ± 0.4
328.15 K, x1 = 0.3506 | – | 47.7 ± 0.4
328.15 K, x1 = 0.3549 | – | 47.4 ± 0.4
328.15 K, x1 = 0.3802 | – | 46.8 ± 0.4
328.15 K, x1 = 0.4191 | – | 45.9 ± 0.4
328.15 K, x1 = 0.4523 | – | 45.3 ± 0.4
328.15 K, x1 = 0.501 | – | 43.5 ± 0.3
328.15 K, x1 = 0.59 | – | 41.7 ± 0.3
328.15 K, x1 = 0.7027 | – | 40.2 ± 0.3
328.15 K, x1 = 0.8088 | – | 39.2 ± 0.3
328.15 K, x1 = 0.8945 | – | 38.7 ± 0.3
